Test results reported in US20250304596A1, “PYRAZINE DERIVATIVES AND USES THEREOF” (FOGHORN THERAPEUTICS INC., priority 2022, published 2025).

What was measured:
[1] = biological target: T1, HiBit-BRG1 fusion protein (Homo sapiens, UniProt P51532); experiment: HiBiT-BRG1 cell-based degradation assay (Nano-Glo HiBiT Lytic Detection, 24 h); conditions: stable HeLa cell line expressing HiBit-BRG1 and LgBit; for Dmax: read-out: BRG1 HiBit Degradation Maximum (%); for DC50: read-out: BRMG1 HiBit Degradation IC50
T1 construct: expressed in transfected cells
T1 sequence (P51532 whole entry, the tested form may be a part): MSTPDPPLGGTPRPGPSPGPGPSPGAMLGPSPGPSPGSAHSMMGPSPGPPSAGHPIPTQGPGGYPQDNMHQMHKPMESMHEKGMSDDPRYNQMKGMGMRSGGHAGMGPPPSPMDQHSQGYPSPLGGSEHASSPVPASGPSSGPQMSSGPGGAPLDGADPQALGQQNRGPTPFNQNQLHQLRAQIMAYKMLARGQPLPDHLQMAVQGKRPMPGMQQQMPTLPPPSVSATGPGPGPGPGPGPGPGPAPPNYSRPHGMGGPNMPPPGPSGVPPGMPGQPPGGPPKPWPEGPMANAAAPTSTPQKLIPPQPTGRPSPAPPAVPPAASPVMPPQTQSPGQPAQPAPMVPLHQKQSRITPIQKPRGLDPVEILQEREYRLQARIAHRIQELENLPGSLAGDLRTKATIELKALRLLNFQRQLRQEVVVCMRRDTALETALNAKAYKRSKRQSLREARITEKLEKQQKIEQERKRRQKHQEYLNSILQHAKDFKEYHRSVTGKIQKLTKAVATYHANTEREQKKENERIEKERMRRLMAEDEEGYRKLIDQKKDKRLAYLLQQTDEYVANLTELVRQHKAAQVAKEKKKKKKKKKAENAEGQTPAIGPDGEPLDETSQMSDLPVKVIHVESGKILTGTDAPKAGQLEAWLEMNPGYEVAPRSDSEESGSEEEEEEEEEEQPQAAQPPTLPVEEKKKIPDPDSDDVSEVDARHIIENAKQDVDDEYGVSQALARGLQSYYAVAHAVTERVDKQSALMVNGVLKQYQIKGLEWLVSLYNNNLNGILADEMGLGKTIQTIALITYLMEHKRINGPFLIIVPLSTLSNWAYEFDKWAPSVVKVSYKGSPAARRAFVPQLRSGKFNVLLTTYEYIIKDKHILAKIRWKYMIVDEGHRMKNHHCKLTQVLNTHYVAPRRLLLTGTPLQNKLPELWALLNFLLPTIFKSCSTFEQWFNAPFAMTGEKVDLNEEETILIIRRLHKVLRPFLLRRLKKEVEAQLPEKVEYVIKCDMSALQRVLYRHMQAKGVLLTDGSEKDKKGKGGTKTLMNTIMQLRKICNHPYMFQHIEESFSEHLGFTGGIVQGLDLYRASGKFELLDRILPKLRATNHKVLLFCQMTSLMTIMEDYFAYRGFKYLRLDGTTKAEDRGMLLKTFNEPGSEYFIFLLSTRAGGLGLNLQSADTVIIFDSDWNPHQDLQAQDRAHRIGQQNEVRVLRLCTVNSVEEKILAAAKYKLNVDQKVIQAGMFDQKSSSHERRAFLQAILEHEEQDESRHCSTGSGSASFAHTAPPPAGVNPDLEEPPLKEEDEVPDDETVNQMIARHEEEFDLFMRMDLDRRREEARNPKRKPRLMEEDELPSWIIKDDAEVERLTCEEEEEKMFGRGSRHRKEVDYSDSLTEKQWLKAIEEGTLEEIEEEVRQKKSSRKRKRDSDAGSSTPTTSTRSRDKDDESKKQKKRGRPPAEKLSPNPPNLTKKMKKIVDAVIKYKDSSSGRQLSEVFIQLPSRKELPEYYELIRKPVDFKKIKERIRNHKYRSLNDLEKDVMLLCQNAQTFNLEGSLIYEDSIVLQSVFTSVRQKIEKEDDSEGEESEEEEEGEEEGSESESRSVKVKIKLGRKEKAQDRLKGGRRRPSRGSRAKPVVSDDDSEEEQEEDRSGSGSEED
Protocol: (§1) Procedure: A stable HeLa cell line expressing HiBiT-BRM was generated. On day 0, 5000 cells were seeded in 40 μL of media into each well of 384-well cell culture plates. On day 1, cells were treated with 120 nL DMSO or 120 nL of 3-fold serially DMSO-diluted compounds (10 points in duplicate with 30 μM as final top dose). Subsequently plates were incubated for 24 h in a standard tissue culture incubator and equilibrated at room temperature for 15 minutes. Nano-Glo HiBiT Lytic Detection System (Promega N3050) reagent was freshly prepared and 20 ul was added to each well. Upon addition of this LgBit-containing reagent, the HiBiT and LgBiT proteins associate to form the luminescent NanoBiT Iuciferase. The plates were shaken for 10 minutes at room temperature and the bioluminescence read using an EnVision plate reader (PerkinElmer).
For measurement of BRG1 degradation, a stable HeLa cell line expressing HiBit-BRG1 and LgBit was generated. The same protocol as above was then followed.
(§2) The degradation % was calculated using the following formula: % degradation=100%-100%×(LumSample−LumLC)/(LumHC−LumLC). DMSO treated cells are employed as High Control (HC) and 2 μM of a known BRM/BRG1 degrader standard treated cells are employed as Low Control (LC).

HiBit-BRM fusion protein = biological target: T2, HiBit-BRM fusion protein (Homo sapiens, UniProt P51531); experiment: HiBiT-BRM cell-based degradation assay (Nano-Glo HiBiT Lytic Detection, 24 h); conditions: stable HeLa cell line expressing HiBiT-BRM; for DC50: read-out: BRM HiBit Degradation IC50
T2 construct: expressed in transfected cells
T2 sequence (P51531 whole entry, the tested form may be a part): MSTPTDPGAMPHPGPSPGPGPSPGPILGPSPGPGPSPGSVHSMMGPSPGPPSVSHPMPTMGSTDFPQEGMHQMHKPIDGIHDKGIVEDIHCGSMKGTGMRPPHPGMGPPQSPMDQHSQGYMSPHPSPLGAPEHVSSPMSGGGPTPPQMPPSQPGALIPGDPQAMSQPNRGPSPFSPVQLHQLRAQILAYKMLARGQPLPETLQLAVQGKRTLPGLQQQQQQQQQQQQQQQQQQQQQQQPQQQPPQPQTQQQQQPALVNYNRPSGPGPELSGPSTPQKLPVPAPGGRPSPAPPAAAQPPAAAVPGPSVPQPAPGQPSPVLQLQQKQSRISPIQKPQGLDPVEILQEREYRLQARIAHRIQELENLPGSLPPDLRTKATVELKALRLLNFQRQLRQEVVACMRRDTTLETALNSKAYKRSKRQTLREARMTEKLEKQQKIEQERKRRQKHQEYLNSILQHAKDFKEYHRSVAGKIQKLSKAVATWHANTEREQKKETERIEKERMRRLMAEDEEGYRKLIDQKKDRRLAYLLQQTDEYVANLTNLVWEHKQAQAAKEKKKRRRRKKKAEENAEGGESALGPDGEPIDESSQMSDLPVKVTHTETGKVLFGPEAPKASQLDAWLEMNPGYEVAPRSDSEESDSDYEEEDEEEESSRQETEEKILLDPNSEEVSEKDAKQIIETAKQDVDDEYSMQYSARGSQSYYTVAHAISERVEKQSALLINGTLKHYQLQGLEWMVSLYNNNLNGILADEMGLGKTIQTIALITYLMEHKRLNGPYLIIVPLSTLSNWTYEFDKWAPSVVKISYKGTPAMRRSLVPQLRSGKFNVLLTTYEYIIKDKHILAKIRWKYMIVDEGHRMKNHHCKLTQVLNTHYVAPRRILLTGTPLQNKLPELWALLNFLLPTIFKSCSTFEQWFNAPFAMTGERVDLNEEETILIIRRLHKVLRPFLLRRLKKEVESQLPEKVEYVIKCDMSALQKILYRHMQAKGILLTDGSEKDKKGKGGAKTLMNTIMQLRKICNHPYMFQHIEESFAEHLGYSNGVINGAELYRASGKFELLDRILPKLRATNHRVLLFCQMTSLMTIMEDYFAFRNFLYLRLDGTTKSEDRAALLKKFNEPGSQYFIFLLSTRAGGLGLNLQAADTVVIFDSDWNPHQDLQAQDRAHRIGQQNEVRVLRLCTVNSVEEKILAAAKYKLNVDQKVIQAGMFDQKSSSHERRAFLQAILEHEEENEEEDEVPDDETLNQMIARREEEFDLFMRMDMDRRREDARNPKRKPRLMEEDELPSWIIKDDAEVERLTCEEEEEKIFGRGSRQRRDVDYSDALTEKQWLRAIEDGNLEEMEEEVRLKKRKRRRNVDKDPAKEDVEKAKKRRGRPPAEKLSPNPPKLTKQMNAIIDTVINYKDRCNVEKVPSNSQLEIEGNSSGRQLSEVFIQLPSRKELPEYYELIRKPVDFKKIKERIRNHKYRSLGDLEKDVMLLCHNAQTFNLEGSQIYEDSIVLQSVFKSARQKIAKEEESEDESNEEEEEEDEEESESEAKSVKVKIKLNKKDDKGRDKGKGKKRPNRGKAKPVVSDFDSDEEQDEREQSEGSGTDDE
Protocol: as §1, §2

Compound | Dmax [1] [%] | DC50 [1] [nM] | BRM HiBit Degradation Maximum (%) (HiBit-BRM fusion protein) | DC50 (HiBit-BRM fusion protein) [nM]
Cc1ncsc1-c1ccc([C@H](C)NC(=O)[C@@H]2C[C@@H](O)CN2C(=O)[C@@H](c2cc(C3CCN(c4ncc(-c5sc6nnc(-c7ccccc7O)cc6c5C)cn4)CC3)no2)C(C)C)cc1 [Compound 32, (2S,4R)-4-hydroxy-1-((R)-2-(3-(1-(5-(3-(2-hydroxyphenyl)-5-methylthieno[2,3-c]pyridazin-6-yl)pyrimidin-2-yl)piperidin-4-yl)isoxazol-5-yl)-3-methylbutanoyl)-N-((S)-1-(4-(4-methylthiazol-5-yl)phenyl)ethyl)pyrrolidine-2-carboxamide] | < 50 | > 1000 | C (“C” indicates maximum degradation <50%) | > 1000
Cc1nc(N2CCC(c3sc4nnc(-c5ccccc5O)cc4c3C)CC2)ccc1-c1cc([C@H](C(=O)N2C[C@H](O)C[C@H]2C(=O)N[C@@H](C)c2ccc(-c3scnc3C)cc2)C(C)C)on1 [Compound 42, (2S,4R)-4-hydroxy-1-((R)-2-(3-(6-(4-(3-(2-hydroxyphenyl)-5-methylthieno[2,3-c]pyridazin-6-yl)piperidin-1-yl)-2-methylpyridin-3-yl)isoxazol-5-yl)-3-methylbutanoyl)-N-((S)-1-(4-(4-methylthiazol-5-yl)phenyl)ethyl)pyrrolidine-2-carboxamide] | > 50 | > 10 | A (“A” indicates maximum degradation ≥75%) | < 10
Cc1ncsc1-c1ccc([C@H](C)NC(=O)[C@@H]2C[C@@H](O)CN2C(=O)[C@@H](c2cc(-c3ccc(N4CC(c5cc6cc(-c7ccccc7O)nnc6s5)C4)nn3)no2)C(C)C)cc1 [Compound 24, (2S,4R)-4-hydroxy-1-((R)-2-(3-(6-(3-(3-(2-hydroxyphenyl)thieno[2,3-c]pyridazin-6-yl)azetidin-1-yl)pyridazin-3-yl)isoxazol-5-yl)-3-methylbutanoyl)-N-((S)-1-(4-(4-methylthiazol-5-yl)phenyl)ethyl)pyrrolidine-2-carboxamide] | > 50 | > 100 | A (“A” indicates maximum degradation ≥75%) | > 10
Cc1ncsc1-c1ccc([C@H](C)NC(=O)[C@@H]2C[C@@H](O)CN2C(=O)[C@@H](c2cc([C@H]3CC[C@@H](c4cnc(N5CCC(c6sc7nnc(-c8ccccc8O)cc7c6C)CC5)nc4)CC3)no2)C(C)C)cc1 (single isomer, unassigned) [Compound 65] | < 50 | > 1000 | A (“A” indicates maximum degradation ≥75%) | > 10
Cc1ncsc1-c1ccc([C@H](C)NC(=O)[C@@H]2C[C@@H](O)CN2C(=O)[C@@H](c2cc(-c3ccc(N4CC(c5sc6nnc(-c7ccccc7O)cc6c5C)C4)nn3)no2)C(C)C)cc1 [Compound 50, (2S,4R)-4-hydroxy-1-((R)-2-(3-(6-(3-(3-(2-hydroxyphenyl)-5-methylthieno[2,3-c]pyridazin-6-yl)azetidin-1-yl)pyridazin-3-yl)isoxazol-5-yl)-3-methylbutanoyl)-N-((S)-1-(4-(4-methylthiazol-5-yl)phenyl)ethyl)pyrrolidine-2-carboxamide] | < 50 | > 1000 | A (“A” indicates maximum degradation ≥75%) | > 10
Cc1ncsc1-c1ccc([C@H](C)NC(=O)[C@@H]2C[C@@H](O)CN2C(=O)[C@@H](c2cc(N3CCN(c4sc5nnc(-c6ccccc6O)cc5c4C)CC3)no2)C(C)C)cc1 [Compound 80, (2S,4R)-4-hydroxy-1-((R)-2-(3-(4-(3-(2-hydroxyphenyl)-5-methylthieno[2,3-c]pyridazin-6-yl)piperazin-1-yl)isoxazol-5-yl)-3-methylbutanoyl)-N-((S)-1-(4-(4-methylthiazol-5-yl)phenyl)ethyl)pyrrolidine-2-carboxamide] | < 50 |  | A (“A” indicates maximum degradation ≥75%) | > 10
Cc1ncsc1-c1ccc([C@H](C)NC(=O)[C@@H]2C[C@@H](O)CN2C(=O)[C@@H](c2cc(N3CCC4(CCC(c5sc6nnc(-c7ccccc7O)cc6c5C)CC4)CC3)no2)C(C)C)cc1 [Compound 85, (2S,4R)-4-hydroxy-1-((R)-2-(3-(9-(3-(2-hydroxyphenyl)-5-methylthieno[2,3-c]pyridazin-6-yl)-3-azaspiro[5.5]undecan-3-yl)isoxazol-5-yl)-3-methylbutanoyl)-N-((S)-1-(4-(4-methylthiazol-5-yl)phenyl)ethyl)pyrrolidine-2-carboxamide] | < 50 |  | A (“A” indicates maximum degradation ≥75%) | > 10
Cc1nc(N2CC[C@H](c3sc4nnc(-c5ccccc5O)cc4c3C)C2)ccc1-c1cc([C@H](C(=O)N2C[C@H](O)C[C@H]2C(=O)N[C@@H](C)c2ccc(-c3scnc3C)cc2)C(C)C)on1 [Compound 95, (2S,4R)-4-hydroxy-1-((R)-2-(3-(6-((S)-3-(3-(2-hydroxyphenyl)-5-methylthieno[2,3-c]pyridazin-6-yl)pyrrolidin-1-yl)-2-methylpyridin-3-yl)isoxazol-5-yl)-3-methylbutanoyl)-N-((S)-1-(4-(4-methylthiazol-5-yl)phenyl)ethyl)pyrrolidine-2-carboxamide] | < 50 |  | A (“A” indicates maximum degradation ≥75%) | < 10
Cc1ncsc1-c1ccc([C@H](C)NC(=O)[C@@H]2C[C@@H](O)CN2C(=O)[C@@H](c2cc(-c3ccc(N4CCC(c5sc6nnc(-c7ccccc7O)cc6c5C)CC4)cn3)no2)C(C)C)cc1 [Compound 34, (2S,4R)-4-hydroxy-1-((R)-2-(3-(5-(4-(3-(2-hydroxyphenyl)-5-methylthieno[2,3-c]pyridazin-6-yl)piperidin-1-yl)pyridin-2-yl)isoxazol-5-yl)-3-methylbutanoyl)-N-((S)-1-(4-(4-methylthiazol-5-yl)phenyl)ethyl)pyrrolidine-2-carboxamide] | < 50 | > 1000 | A (“A” indicates maximum degradation ≥75%) | < 10
Cc1ncsc1-c1ccc([C@H](C)NC(=O)[C@@H]2C[C@@H](O)CN2C(=O)[C@@H](c2cc(-c3cnc(N4CCC5(CC4)CC(c4sc6nnc(-c7ccccc7O)cc6c4C)C5)nc3)no2)C(C)C)cc1 [Compound 48, (2S,4R)-4-hydroxy-1-((R)-2-(3-(2-(2-(3-(2-hydroxyphenyl)-5-methylthieno[2,3-c]pyridazin-6-yl)-7-azaspiro[3.5]nonan-7-yl)pyrimidin-5-yl)isoxazol-5-yl)-3-methylbutanoyl)-N-((S)-1-(4-(4-methylthiazol-5-yl)phenyl)ethyl)pyrrolidine-2-carboxamide] | < 50 | > 1000 | A (“A” indicates maximum degradation ≥75%) | > 10
Cc1ncsc1-c1ccc([C@H](C)NC(=O)[C@@H]2C[C@@H](O)CN2C(=O)[C@@H](c2cc(-c3cnc(N4CC[C@H](c5cc6cc(-c7ccccc7O)nnc6s5)C4)nc3)no2)C(C)C)cc1 [Compound 6, (2S,4R)-4-hydroxy-1-((R)-2-(3-(2-((S)-3-(3-(2-hydroxyphenyl)thieno[2,3-c]pyridazin-6-yl)pyrrolidin-1-yl)pyrimidin-5-yl)isoxazol-5-yl)-3-methylbutanoyl)-N-((S)-1-(4-(4-methylthiazol-5-yl)phenyl)ethyl)pyrrolidine-2-carboxamide] | < 50 | > 1000 | A (“A” indicates maximum degradation ≥75%) | < 10
Cc1ncsc1-c1ccc([C@H](C)NC(=O)[C@@H]2C[C@@H](O)CN2C(=O)[C@@H](c2cc(-c3cnc(CN4CCC(c5cc6cc(-c7ccccc7O)nnc6s5)CC4)nc3)no2)C(C)C)cc1 (single isomer, unassigned) [Compound 99] | < 50 |  | B (“B” indicates maximum degradation ≥50%) | > 10
Cc1ncsc1-c1ccc([C@H](C)NC(=O)[C@@H]2C[C@@H](O)CN2C(=O)[C@@H](c2cc(-c3cnc(N4CC[C@@H](c5cc6nnc(-c7ccccc7O)cc6s5)C4)nc3)no2)C(C)C)cc1 [Compound 82, (2S,4R)-4-hydroxy-1-((R)-2-(3-(2-((R)-3-(3-(2-hydroxyphenyl)thieno[3,2-c]pyridazin-6-yl)pyrrolidin-1-yl)pyrimidin-5-yl)isoxazol-5-yl)-3-methylbutanoyl)-N-((S)-1-(4-(4-methylthiazol-5-yl)phenyl)ethyl)pyrrolidine-2-carboxamide] | > 50 | > 10 | A (“A” indicates maximum degradation ≥75%) | < 10
Cc1ncsc1-c1ccc([C@H](C)NC(=O)[C@@H]2C[C@@H](O)CN2C(=O)[C@@H](c2cc(Oc3cnc(N4CCC(c5sc6nnc(-c7ccccc7O)cc6c5C)CC4)nc3)no2)C(C)C)cc1 (single isomer, unassigned) [Compound 51] | < 50 | > 1000 | A (“A” indicates maximum degradation ≥75%) | > 10
